According to patent publication US20240207288A1, “METHODS OF TREATING ESOPHAGEAL STRICTURES” (Ellodi Pharmaceuticals, L.P., priority 2021, published 2024):

System: subjects with strictures and/or rings and EoE
Experiment: Clinical trial of FP ODT: endoscopy (EREFS, strictures, rings)
Assay type: in vivo, human
Settings: for Stricture and Grade 2 Rings at Week 12, % / Stricture at Week 12, % / Stricture or Grade 2 Rings at Week 12, % / Subjects with new strictures and/or rings at Week 12, % / Endoscopy Responder Rate (overall EFEFS score ≤4), %: subgroup with strictures and/or Grade 2 rings at baseline; for Endoscopy Responder Rate (overall EFEFS score ≤4), %: Week 12
From the text: In some embodiments, the strictures and/or rings are diagnosed using EoE Endoscopic Reference Score (EREFS), which measures edema (e.g., decreased vascularity or pallot), rings present, exudates (e.g., white plaques), furrows, and/or stricture in the esophagus according to Table 1. In embodiments, the patient also has a grade 2 or grade 3 ring.
In some embodiments, the methods of the present disclosure cause an improvement in a patient's EoE Endoscopic Reference score (EREFS). The EREFS identifies the severity of five endoscopic findings: edema, rings, exudates, furrows, and strictures. The EREFS classification system rates the severity of each of the endoscopic findings. The severity of edema is rated on a scale from 0 to 2. The severity of rings is rated from 0 to 3. The severity of exudates is rated from 0 to 2. The severity of furrows is rated from 0 to 2. The severity of strictures is rated from 0 to 1. The absence of a finding corresponds to a score of 0. The presence of a finding corresponds to a score of 1, 2, or 3. A higher score is correlated with higher severity. In some embodiments, the composite EREFS score, or the sum of the individual scores, is utilized to indicate the severity of EoE. In some embodiments, the inflammatory EREFS score, or the sum of the individual edeme, exudate, and furrows score, is utilized to indicate the severity of EoE. In some embodiments, a higher inflammatory or composite EREFS score corresponds to the severity of EoE. In some embodiments, the inflammatory or composite EREFS score decreases after treatment with a corticosteroid according to the methods of the disclosure. In some embodiments the inflammatory or composite EREFS score decreases by 0.1, or about 0.2, or about 0.3, or about 0.4, or about 0.5, or about 0.6, or about 0.7, or about 0.8, or about 0.9, or about 1.0, or about 1.1, or about 1.2, or about 1.3, or about 1.4, or about 1.5, or about 1.6, or about 1.7, or about 1.8, or about 1.9, or about 2.0, or about 2.1, or about 2.2, or about 2.3, or about 2.4, or about 2.5, or about 2.6, or about 2.7, or about 2.8, or about 2.9, or about 3.0, or about 3.1, or about 3.2, or about 3.3, or about 3.4, or about 3.5, or about 3.6, or about 3.7, or about 3.8, or about 3.9, or about 4.0, or about 4.1, or about 4.2, or about 4.3, or about 4.4, or about 4.5, or about 4.6, or about 4.7, or about 4.8, or about 4.9, or about 5.0, or about 5.1, or about 5.2, or about 5.3, or about 5.4, or about 5.5, or about 5.6, or about 5.7, or about 5.8, or about 5.9, or about 6.0, or about 6.1, or about 6.2, or about 6.3, or about 6.4, or about 6.5, or about 6.6, or about 6.7, or about 6.8, or about 6.9, or about 7.0, or about 7.1, or about 7.2, or about 7.3, or about 7.4, or about 7.5, or about 7.6, or about 7.7, or about 7.8, or about 7.9, or about 8.0, or about 8.1, or about 8.2, or about 8.3, or about 8.4, or about 8.5, or about 8.6, or about 8.7, or about 8.8, or about 8.9, or about 9.0, or about 9.1, or about 9.2, or about 9.3, or about 9.4, or about 9.5, or about 9.6, or about 9.7, or about 9.8, or about 9.9, or about 10.0 points, or more, inclusive of all ranges between these values. In some embodiments, the EREFS score decreases by 1%, or 5%, or 10%, or 15%, or 20%, or 25%, or 30%, or 35%, or 40%, or 45%, or 50%, or 55%, or 60%, or 65%, or 70%, or 75%, or 80%, or 85%, or 90%, or 95% or more, inclusive of all ranges between these values. The following article, incorporated by reference in its entirety herein, describes the EREFS score: Wechsler, Clin Hepatol. 2018 July; 16(7): 1056-1063.
A clinical trial was performed to evaluate the effect of an orally disintegrating tablet (“ODT”) comprising fluticasone propionate (FP). A randomised, double-blind, placebo-controlled, multicentre, dose-ranging, and maintenance study of FP in subjects (>18 and <75 years of age) with strictures and/or rings and EoE. […]

[1] = all FP dosing groups, TOTAL (n = 43)

S-(fluoromethyl)-6α,9-difluoro-11β, 17-dihydroxy-16α-methyl-3-oxoandrosta-1, 4-diene-17β-carbothioate, 17-propanoate [FP]
Stricture and Grade 2 Rings at Week 12, % (FP 1.5 mg BID (n = 12)): 0%
Stricture at Week 12, % (FP 1.5 mg BID (n = 12)): 42%
Stricture or Grade 2 Rings at Week 12, % (FP 1.5 mg BID (n = 12)): 50%
Subjects with new strictures and/or rings at Week 12, % (FP 1.5 mg BID (n = 12)): 0%
Endoscopy Responder Rate (overall EFEFS score ≤4), % (FP 1.5 mg BID (n = 12)): 92%
Stricture and Grade 2 Rings at Week 12, % (FP 1.5 mg HS (n = 13)): 0%
Stricture at Week 12, % (FP 1.5 mg HS (n = 13)): 8%
Stricture or Grade 2 Rings at Week 12, % (FP 1.5 mg HS (n = 13)): 15%
Subjects with new strictures and/or rings at Week 12, % (FP 1.5 mg HS (n = 13)): 0%
Endoscopy Responder Rate (overall EFEFS score ≤4), % (FP 1.5 mg HS (n = 13)): 77%
Stricture and Grade 2 Rings at Week 12, % (FP 3 mg BID (n = 7)): 0%
Stricture at Week 12, % (FP 3 mg BID (n = 7)): 29%
Stricture or Grade 2 Rings at Week 12, % (FP 3 mg BID (n = 7)): 29%
Subjects with new strictures and/or rings at Week 12, % (FP 3 mg BID (n = 7)): 0%
Endoscopy Responder Rate (overall EFEFS score ≤4), % (FP 3 mg BID (n = 7)): 86%
Stricture and Grade 2 Rings at Week 12, % (FP 3 mg HS (n = 11)): 0%
Stricture at Week 12, % (FP 3 mg HS (n = 11)): 9%
Stricture or Grade 2 Rings at Week 12, % (FP 3 mg HS (n = 11)): 18%
Subjects with new strictures and/or rings at Week 12, % (FP 3 mg HS (n = 11)): 0%
Endoscopy Responder Rate (overall EFEFS score ≤4), % (FP 3 mg HS (n = 11)): 100%
Stricture and Grade 2 Rings at Week 12, % [1]: 0%
Stricture at Week 12, % [1]: 21%
Stricture or Grade 2 Rings at Week 12, % [1]: 28%
Subjects with new strictures and/or rings at Week 12, % [1]: 0%
Endoscopy Responder Rate (overall EFEFS score ≤4), % [1]: 88%
Grade 2 Rings at Week 12, % (all FP dosing groups, subjects with stricture/rings at baseline): 7%
Effect on strictures and/or grade 2 esophageal rings (post-hoc analysis) (patients with strictures and/or grade 2 esophageal rings at baseline, particularly the 3-mg HS dosing group): improvement or resolution of these features in most patients
